Reference: ChEMBL document CHEMBL3507680, “University of Dundee, Gates Library screen for HepG2 cell viability”

Experiment: Human HepG2 cell viability assay in 384 well format
Format: toxicity, cell-based
Design: dose 125 nL, time 70.5 hour; concentration not given beside the values
Details: HepG2 cells, read-out: Inhibition

Row | Structure (SMILES) | cytotoxicity at 70.5 h [%]
1 | CCC(=O)N1CCN(C(=O)Nc2ccc(Cl)cc2)[C@H]2CS(=O)(=O)C[C@H]21 | -14.3
2 | Cc1cccn2c(=O)cc(CN3CCCCC3Cn3cncn3)nc12 (centres undefined) | 7.36
3 | CNc1snc(C)c1C(=O)N1CCCC(n2ccnc2)C1 (centres undefined) | -9.44
4 | Cc1ncsc1CN1C[C@@H](OCC2CC2)[C@H]2OCCC[C@H]21 | -5.13
5 | COc1ccc(C(O)CN2CC(n3nc(C)cc3C)C2)cc1 (centres undefined) | 1.87
6 | c1cc(-c2cnccn2)cc(-c2ccn(CCN3CCCCC3)n2)c1 | -7.67
7 | CC(=O)N1CCCC2(C1)CN(c1ncc(C)cn1)CCO2 (centres undefined) | -17.1
8 | COc1cccc(C(=O)N2CCN(C(=O)CCCc3cn[nH]c3)CC2)c1 | -2.77
9 | Cc1cc(CN2CCN(C(C)c3nc(C(C)C)no3)CC2)no1 (centres undefined) | -7.52
10 | Cn1nc(CN2CCCCC2)c2c1CN(C(=O)c1ccoc1)C2 | 16.5
11 | O=C(O)C1(Oc2ccccc2)CCN(c2ccncc2)CC1 | -2.23
12 | CC(C)(C)C(=O)N1CCCC1c1nccnc1Cl (centres undefined) | -8.54
13 | COc1ccc(NC(=O)CCC(C)C)c(N2CCN(C(C)=O)CC2)n1 | -13.6
14 | Cn1ccc(C(=O)N2CCCC(n3cncn3)C2)cc1=O (centres undefined) | -10.3
15 | Cc1noc(C)c1C(=O)NCCSCc1cccs1 | 0.282
16 | CN(Cc1ccccc1Cl)C(=O)c1cc(CN2CCC(O)CC2)on1 | -17.3
17 | O=C(Cc1ccsc1)N1CCC(O)(CN2CCc3ccccc3C2)C1 (centres undefined) | -5.49
18 | CC(C)(C)c1cnc(CN2CCCS(=O)(=O)CC2)o1 | -1.34
19 | CCN1CCC2(CC1)CC(NC(=O)N(C)C)c1cc(C)ccc12 (centres undefined) | 1.47
20 | CSc1ncnc(NCc2ccccc2F)c1C#N | 23.1
21 | Cc1n[nH]c(C)c1CCN(C)C(=O)c1ccc(CN2CCCCC2)cc1 | 34.3
22 | COCCC(=O)N1CCC2(CN(Cc3cccc(Cl)c3)C2)C1 | 33.3
23 | OCCCN1CCCC1c1nc(Cc2ccc(F)cc2)no1 (centres undefined) | 8.04

Row | Structure (SMILES) | cytotoxicity at 70.5 h [%]
24 | COc1cccc(CC(=O)NC2CCCc3cn[nH]c32)c1 (centres undefined) | -0.729
25 | Cc1ccc(Br)cc1S(=O)(=O)NCCc1nnc[nH]1 | 11.5
26 | Cc1noc(C(C)C)c1C(=O)NCc1cccc(N(C)C)c1 | 12.6
27 | CCO[C@H]1CC[C@H]2[C@@H]1OCCN2C(=O)COc1ccccc1 | 27.1
28 | CCOc1ccc(N2CCCN=C2NC(=O)c2ccc(Cl)cc2)cc1 | -1.22
29 | CCc1nc(C)sc1CNC1CCN(Cc2ccccc2)C1 (centres undefined) | 8.22
30 | Cn1cc(CNCC2(O)CCCN(Cc3ccc(F)c(F)c3)C2=O)cn1 (centres undefined) | -3.67
31 | COc1c(CNCc2ccccc2CN2CCOCC2)c(C)nn1C | -7.68
32 | CCCc1cc(NCCN2CCNC2=O)n2nccc2n1 | -11.5
33 | COc1ccc(NC(=O)NC(C)c2nc[nH]n2)cc1Cl (centres undefined) | -2.57
34 | CSCc1noc(-c2nc3c([nH]2)CCCNC3=O)n1 | -4.67
35 | CN1C[C@@H](n2cnc(-c3ccccc3)c2-c2c[nH]cn2)C[C@H]1C(=O)O | -7.26
36 | CC(=O)NCCCSC1CCN(c2ccccc2Cl)C1=O (centres undefined) | -10.2
37 | c1ccc(-c2nnc(CNCC3CCCN3c3cccnn3)o2)cc1 (centres undefined) | 7.04
38 | Cc1cnn(CC2CN(Cc3cccnc3)CCO2)c1 (centres undefined) | -6.35
39 | O=C1COc2ccc(C(=O)NS(=O)(=O)c3cc(F)ccc3F)cc2N1 | -8.54
40 | Cc1nc(CN2CCCC(N(C)CC(=O)Nc3cccnc3)C2)no1 (centres undefined) | 15.1
41 | COc1ccccc1C(=O)Nc1ccc([C@@H](O)[C@H]2COCC(=O)N2)cc1 | -4.28
42 | CO[C@@H]1CCN(C(=O)c2ccccn2)[C@H]1Cc1ccccc1 | -16.2
43 | CC[C@@]1(O)CCN(C(=O)CCNC(=O)c2ccc(F)cc2)C[C@H]1O | -5.99
44 | CN(C)c1cccc(C(=O)Nc2cnn(Cc3ccncc3)c2)c1 | -11.3
45 | CCC[C@H]1CN(CCCO)C[C@@H]1NC(=O)Cn1cc(C)cn1 | -4.28
46 | CNC(=O)COc1cccc(CNCc2c(C)noc2C)c1 | 10.2

Row | Structure (SMILES) | cytotoxicity at 70.5 h [%]
47 | CC(c1ccc(F)c(F)c1)N1CCN(Cc2nccn2C)CC1 (centres undefined) | 47.8
48 | CSc1ncccc1C(=O)N1C[C@H]2CC[C@@H]1CN(CC(=O)N(C)C)C2 | 45.6
49 | CCOc1cc(CNCCCn2ccnc2)cc(Cl)c1OCC | 19.9
50 | COCC1COCCC12CCN(C(=O)COc1ccccc1)CC2 (centres undefined) | -14.3
51 | Cc1ccc(CN2CCN(Cc3nccn3C)[C@H]3CS(=O)(=O)C[C@H]32)o1 | -6.86
52 | CCN(CC)c1nc(Nc2cccc(C(=O)O)c2)nc2ccccc12 | -11.2
53 | CS(=O)(=O)Cc1noc(CN2CCc3c(Cl)cccc3C2)n1 | -79.4
54 | Cc1ccc(C(=O)N(C)CC(=O)NCC(F)(F)F)cn1 | 0.05
55 | CCN(C)CC(C)Cn1cnc(-c2ccccc2)c1-c1cncn1CC (centres undefined) | -10.8
56 | Cc1nc(C2CCCN2C(=O)CCCn2cncn2)no1 (centres undefined) | -7.37
57 | COc1ccc2[nH]cc(-c3ccnc(N4CCC(C)CC4)n3)c2c1 | 1.51
58 | O=C1CN(CC2CC2)Cc2nc(NCc3ccccc3)sc21 | 20.7
59 | COc1ncccc1CNC(=O)c1cc(Cl)ccn1 | -8.01
60 | Cc1nc(-c2ccsc2)ccc1C(=O)N(C)CC(F)(F)F | -11.2
61 | CC(O)(CNC(=O)c1c(F)cccc1Cl)C1CC1 (centres undefined) | -14.4
62 | OCCN(Cc1nc(-c2ccc3c(c2)OCO3)no1)CC1CC1 | 4.42
63 | CSCCC(Nc1nc(C)cc(C)n1)C(=O)NCC1CCOCC1 (centres undefined) | -8.81
64 | C=C(C)CN(CC)C(=O)c1cc(C)ccc1NS(C)(=O)=O | 3.16
65 | CN(C)Cc1cncc2c1CCN(CC(=O)N(C)C)C2 | 10.2
66 | CC(C)(CCS(C)(=O)=O)CNC(=O)NC1CCCC1(C)C (centres undefined) | -6.64
67 | COCc1ncn2c1CN(S(=O)(=O)c1cccc(OC)c1)CC2 | 8.77
68 | CC(C)(C)OC(=O)NCC1CCCCN1Cc1cccc(C(N)=O)c1 (centres undefined) | 1.21
69 | COc1ccc(NC(=O)NC(C)Cc2ccco2)cn1 (centres undefined) | -11.4

Row | Structure (SMILES) | cytotoxicity at 70.5 h [%]
70 | CCCc1noc(CCC(=O)N2CCCC2c2noc(C3CC3)n2)n1 (centres undefined) | -16.9
71 | O=C(NCCN1CCCC1)c1nc2c(o1)CN(C(=O)c1cccnc1)C2 | -1.83
72 | NS(=O)(=O)CCN1CCOC(c2ccsc2)C1 (centres undefined) | 1.05
73 | COC1CCCN(C(=O)c2sc(CC(C)C)nc2C)C1 (centres undefined) | -6.5
74 | COCCS(=O)(=O)NC(C)c1cccc(-n2cccn2)c1 (centres undefined) | 0.445
75 | CC(C)c1ccc(-c2nnn(CCNS(C)(=O)=O)n2)cc1 | 3.94
76 | CCOCC(=O)N(C)c1ccc(F)c(Cl)c1 | -2.55
77 | CCn1ccnc1CN1CCN(Cc2ccc(C)o2)[C@@H]2CS(=O)(=O)C[C@@H]21 | -4.31
78 | Cc1n[nH]c(C2CN(C(=O)CCCn3cccn3)CCO2)n1 (centres undefined) | -2.71
79 | OC(CN1CCN(Cc2ccc(F)c(F)c2)CC1)C1CC1 (centres undefined) | 0.728
80 | O=c1cc(N2CCNCC2)cnn1CCCn1cccn1 | -9.24
81 | CC(C)N1CC(C(=O)NC(C)(C)CNC(=O)OC(C)(C)C)CC1=O (centres undefined) | -3.84
82 | CCOc1ccc(CN2CCNC(C(=O)NC3CC3)C2)cc1CO (centres undefined) | -10.9
83 | CN(Cc1ccc(C#N)cc1)C(=O)c1ccnc(OC2CCC2)c1 | 16.3
84 | CCCc1noc(CN(C)Cc2ccc3c(c2)OCO3)n1 | 17.8
85 | CCN(CC)CCNC(=O)c1ccc(Cl)c(NS(C)(=O)=O)c1 | 4.61
86 | Cc1nc(O)c2nnn(C[C@H]3CCCN3C(=O)c3ccc(F)cc3)c2n1 | -4.53
87 | CN(Cc1noc(C2CC2)n1)C1CCN(Cc2cccc(F)c2F)C1 (centres undefined) | 15.9
88 | CN(C)S(=O)(=O)N1CCC(c2ccnc(Nc3ccccn3)n2)C1 (centres undefined) | -0.703
89 | COC(=O)c1ccc(S(=O)(=O)NC2CNC(=O)C2)cc1 (centres undefined) | 0.76
90 | N#Cc1cccc(N2CC3(CCN(C(=O)c4ccnnc4)C3)CC2=O)c1 (centres undefined) | -10.5
91 | Cn1cnc2c1CCN(Cc1csc(C3CCCCC3)n1)C2 | -14.4
92 | O=C(NCCCNC(=O)c1cccc(O)c1)Nc1ccc(F)cc1F | -2.92

Row | Structure (SMILES) | cytotoxicity at 70.5 h [%]
93 | O=C(c1ccoc1)N1CCCC2(CCC(=O)N2Cc2cccnc2)C1 (centres undefined) | 2.4
94 | COc1ccc(CCCC(=O)N2C[C@H](C3CC3)[C@@H](N(C)C)C2)cc1 | -9.86
95 | CCc1ccc2nc(NCCOCCO)cc(C)c2c1 | -2.24
96 | COc1ccc(CCC(=O)NCCN2CCC(c3cccs3)CC2)cc1 | -1.5
97 | Cc1ccc(CC(=O)N2C[C@@H](CN(C)C)[C@@H](CO)C2)cc1C | -2.62
98 | Cc1ccc(CNC(=O)CCN2CCN(c3ccccn3)CC2)n1C | 21.9
99 | Cn1nccc1C(=O)N1C[C@@H]2CC[C@H](Oc3cccc(F)c3)[C@@H]2C1 | -3.82
100 | CC(=O)Nc1ccc(CNC(=O)CNCc2nnc(C)o2)cc1 | 2.3
101 | CCc1nnc(CNC(=O)CCCN2CCCCC2)s1 | -0.919
102 | CN1CCN(S(=O)(=O)NCC2COc3ccccc3C2)CC1 (centres undefined) | -3.52
103 | O=C(NC1CC1)N1C[C@H]2CN(Cc3cccc(F)c3)C(=O)[C@H]2C1 | -13.8
104 | CCCN(C(=O)c1csnn1)C1CCCN(Cc2ccccc2)C1 (centres undefined) | -5.57
105 | FC(F)(F)c1ccc2nc([C@H]3CCN(C4CCOCC4)C3)[nH]c2c1 | -12.9
106 | Oc1ccc(Br)c(CNc2cccc(-c3nnc[nH]3)c2)c1 | 1.61
107 | COc1ccc(NC(=O)NCC(O)c2ccccc2F)c(OC)c1 (centres undefined) | 19.2
108 | Cc1nccc(CNS(=O)(=O)N2CCCC2c2ccc(C)o2)n1 (centres undefined) | -9.86
109 | Cc1nc(N2CCC(C(O)c3nccn3C)CC2)c2nc(C)oc2n1 (centres undefined) | -5.83
110 | Cc1ccc2cc(C(=O)N3CCN(C(=O)N(C)C)CC3)ccc2n1 | -2.65
111 | O=C1OCCC1N1CCN(c2cnccn2)CC1 (centres undefined) | -8.4
112 | O=C(c1cnc(O)cn1)N1CCC(CN2CCOCC2)CC1 | -13.8
113 | O=C(CN1CCSCC1c1ccccc1)N1CCOCC1 (centres undefined) | -3.64
114 | COc1ccccc1Cc1cncc(N2CC(C(=O)O)C2)n1 | -13.5
